Earlier results in patent US12036203B2, “Methods of treating or reducing the risk of cardiovascular events and related diseases using SGLT-2 inhibitors” (Merck Sharp & Dohme LLC, priority 2016, dated 2024).

Conditions: type 2 diabetes at high cardiovascular risk

For OC[C@H]1O[C@@H](c2ccc(Cl)c(Cc3ccc(O[C@H]4CCOC4)cc3)c2)[C@H](O)[C@@H](O)[C@@H]1O [empagliflozin], the “rate of hospitalization for heart failure” value (in addition to standard of care, placebo group 4.1%) is given as 2.7%, the “rate of death from cardiovascular causes” value (in addition to standard of care, placebo group 5.9%) is given as 3.7% and the “rate of death from any cause” value (in addition to standard of care, placebo group 8.3%) is given as 5.7%. The “rates of myocardial infarction or stroke” value (vs. placebo) was “no significant between-group differences”, the “relative risk reduction, death from any cause” value (vs. placebo) was 32% and the “relative risk reduction, death from cardiovascular causes” value (vs. placebo) was 38%. For the same compound, the “relative risk reduction, hospitalization for heart failure” value (vs. placebo) was 35%.
